For ten compounds, DC50 and Y results are on record in patent publication US11306101B2 (Celgene Corporation, priority 2019, dated 2022).

SMILES strings stand for the structures.

For this assay, the target named is T1, CK1α (Homo sapiens, UniProt P48729+Q96SW2).
T1 construct: expressed in transfected cells
As to the kind of experiment: CK1α ePL degradation assay in MDS-L cells. The assay is classed as cell-based. Particulars: MDS-L cells expressing ePL-tagged CK1α; for DC50: concentration giving 50% CK1α degradation vs DMSO control; for Y: lowest measured CK1α level normalized to DMSO control. In a few lines:
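Degradation efficiency is reported as Y value, the minimum CK1α level (percent of DMSO control) across doses. Readout used InCELL Hunter luminescent detection after MDS-L cell exposure at 37° C for stated times, doses 10 μM down to 0.0005 μM in 3-fold steps.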

T1 sequence (P48729 whole entry): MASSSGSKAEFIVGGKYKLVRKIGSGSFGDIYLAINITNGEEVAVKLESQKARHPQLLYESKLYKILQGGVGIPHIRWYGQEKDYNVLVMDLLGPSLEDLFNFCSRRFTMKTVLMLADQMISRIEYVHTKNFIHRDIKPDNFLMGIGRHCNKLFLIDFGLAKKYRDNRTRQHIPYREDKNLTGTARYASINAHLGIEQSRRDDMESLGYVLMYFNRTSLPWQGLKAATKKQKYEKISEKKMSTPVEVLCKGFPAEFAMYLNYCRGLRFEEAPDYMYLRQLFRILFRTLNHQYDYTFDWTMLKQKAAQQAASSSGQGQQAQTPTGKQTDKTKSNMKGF
T1 sequence (Q96SW2 whole entry): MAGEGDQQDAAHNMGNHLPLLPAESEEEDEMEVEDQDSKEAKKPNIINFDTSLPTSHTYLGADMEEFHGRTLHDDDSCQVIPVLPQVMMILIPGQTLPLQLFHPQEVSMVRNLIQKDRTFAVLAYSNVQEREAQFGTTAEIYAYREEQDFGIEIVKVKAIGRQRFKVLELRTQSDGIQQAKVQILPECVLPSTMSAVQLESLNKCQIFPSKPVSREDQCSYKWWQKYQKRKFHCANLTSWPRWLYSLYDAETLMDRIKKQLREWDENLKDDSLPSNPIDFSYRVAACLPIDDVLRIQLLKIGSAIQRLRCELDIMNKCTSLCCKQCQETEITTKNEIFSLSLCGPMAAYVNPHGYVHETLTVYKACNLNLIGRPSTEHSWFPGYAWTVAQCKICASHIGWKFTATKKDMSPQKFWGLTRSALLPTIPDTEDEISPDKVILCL
T1 sequence (Q16531 whole entry partner): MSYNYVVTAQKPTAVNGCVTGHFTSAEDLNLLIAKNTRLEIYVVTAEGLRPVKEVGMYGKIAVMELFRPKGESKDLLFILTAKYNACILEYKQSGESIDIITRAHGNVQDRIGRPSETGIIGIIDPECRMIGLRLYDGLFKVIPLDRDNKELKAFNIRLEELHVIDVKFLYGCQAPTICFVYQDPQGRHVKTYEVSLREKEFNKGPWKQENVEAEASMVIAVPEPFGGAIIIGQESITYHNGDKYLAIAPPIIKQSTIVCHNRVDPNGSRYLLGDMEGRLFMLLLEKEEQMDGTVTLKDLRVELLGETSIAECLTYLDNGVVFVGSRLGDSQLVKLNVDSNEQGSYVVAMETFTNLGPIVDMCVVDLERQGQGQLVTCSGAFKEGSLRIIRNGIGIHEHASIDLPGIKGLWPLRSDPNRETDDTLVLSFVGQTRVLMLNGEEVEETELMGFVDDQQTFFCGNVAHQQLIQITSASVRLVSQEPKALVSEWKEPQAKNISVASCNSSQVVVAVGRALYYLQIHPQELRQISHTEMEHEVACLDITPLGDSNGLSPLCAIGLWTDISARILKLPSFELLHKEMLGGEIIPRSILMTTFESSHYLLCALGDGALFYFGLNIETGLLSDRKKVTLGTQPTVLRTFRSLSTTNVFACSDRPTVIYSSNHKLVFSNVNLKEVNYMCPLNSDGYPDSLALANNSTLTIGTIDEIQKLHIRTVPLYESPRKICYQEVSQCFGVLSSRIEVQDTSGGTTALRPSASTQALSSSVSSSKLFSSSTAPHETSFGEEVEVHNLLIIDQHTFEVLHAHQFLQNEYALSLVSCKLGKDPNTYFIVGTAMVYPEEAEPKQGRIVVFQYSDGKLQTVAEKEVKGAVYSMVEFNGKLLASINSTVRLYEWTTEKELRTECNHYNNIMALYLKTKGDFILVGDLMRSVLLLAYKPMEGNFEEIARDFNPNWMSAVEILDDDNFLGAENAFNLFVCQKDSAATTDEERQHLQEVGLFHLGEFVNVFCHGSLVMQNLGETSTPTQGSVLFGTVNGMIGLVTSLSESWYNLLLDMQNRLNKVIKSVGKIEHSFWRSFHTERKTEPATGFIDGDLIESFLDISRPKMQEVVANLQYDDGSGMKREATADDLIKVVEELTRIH

As a reminder, the DC50 is the concentration giving 50% degradation. Higher therefore signals a less potent degrader. Consider `O=C1CCC(N2Cc3cc(C(=O)N[C@H](c4ccccc4C(F)(F)F)C(F)(F)F)c(F)cc3C2=O)C(=O)N1` (stereo partly drawn) [Example 88, 2-(2,6-dioxopiperidin-3-yl)-6-fluoro-1-oxo-N-((R)-2,2,2-trifluoro-1-(2-(trifluoromethyl)phenyl)ethyl)isoindoline-5-carboxamide], for which the DC50 was < 100 nM and the Y result was “* (a Y value (shown as *) of 0<Y≤20%)”.
`O=C1CCC(N2Cc3c(ccc(C(=O)N[C@H](c4ccccc4)C(F)(F)F)c3F)C2=O)C(=O)N1` (stereo partly drawn) [Example 89, 2-(2,6-dioxopiperidin-3-yl)-4-fluoro-1-oxo-N-((R)-2,2,2-trifluoro-1-phenylethyl)isoindoline-5-carboxamide]: the DC50 is < 100 nM and the Y entry is reported as “** (a Y value (shown as**) of 20%<Y≤35%)”.
Turning to `O=C1CCC(N2Cc3cc(C(=O)N[C@H](c4cccc(C(F)(F)F)c4)C(F)(F)F)c(F)cc3C2=O)C(=O)N1` (stereo partly drawn) [Example 90, 2-(2,6-dioxopiperidin-3-yl)-6-fluoro-1-oxo-N-((R)-2,2,2-trifluoro-1-(3-(trifluoromethyl)phenyl)ethyl)isoindoline-5-carboxamide], the 50% degradation concentration (DC50) was in the range of 100 to 500 nM and the Y result was “** (a Y value (shown as**) of 20%<Y≤35%)”.
Turning to `O=C1CCC(N2Cc3cc(C(=O)N[C@H](c4ccc(Cl)cc4)C(F)(F)F)c(F)cc3C2=O)C(=O)N1` (stereo partly drawn) [Example 91, N-((R)-1-(4-chlorophenyl)-2,2,2-trifluoroethyl)-2-(2,6-dioxopiperidin-3-yl)-6-fluoro-1-oxoisoindoline-5-carboxamide], the half-maximal degradation concentration (DC50) is < 100 nM and the Y entry is recorded as “** (a Y value (shown as**) of 20%<Y≤35%)”.
On to `O=C1CCC(N2Cc3cc(C(=O)N[C@H](c4ccc(F)cc4)C(F)(F)F)c(F)cc3C2=O)C(=O)N1` (stereo partly drawn) [Example 92, 2-(2,6-dioxopiperidin-3-yl)-6-fluoro-1-oxo-N-((R)-2,2,2-trifluoro-1-(4-fluorophenyl)ethyl)isoindoline-5-carboxamide], for which the DC50 is 100 to 500 nM and the Y result is listed as “** (a Y value (shown as**) of 20%<Y≤35%)”.
For `O=C1CCC(N2Cc3c(ccc(C(=O)N[C@H](c4ccc(Cl)cc4)C(F)(F)F)c3F)C2=O)C(=O)N1` (stereo partly drawn) [Example 93, N-((R)-1-(4-chlorophenyl)-2,2,2-trifluoroethyl)-2-(2,6-dioxopiperidin-3-yl)-4-fluoro-1-oxoisoindoline-5-carboxamide], the 50% degradation concentration (DC50) is < 100 nM and the Y result is recorded as “* (a Y value (shown as *) of 0<Y≤20%)”.
The corresponding values for `CC1([C@@H](NC(=O)c2ccc3c(c2)CN(C2CCC(=O)NC2=O)C3=O)C(F)(F)F)COC1` (stereo partly drawn) [Example 94, 2-(2,6-dioxopiperidin-3-yl)-1-oxo-N-((R)-2,2,2-trifluoro-1-(3-methyloxetan-3-yl)ethyl)isoindoline-5-carboxamide] are 100 to 500 nM and “** (a Y value (shown as**) of 20%<Y≤35%)”.
The corresponding values for `CC(C)(CO)[C@@H](NC(=O)c1ccc2c(c1)CN(C1CCC(=O)NC1=O)C2=O)C(F)(F)F` (stereo partly drawn) [Example 95, 2-(2,6-dioxopiperidin-3-yl)-1-oxo-N-((R)-1,1,1-trifluoro-4-hydroxy-3,3-dimethylbutan-2-yl)isoindoline-5-carboxamide] are 500 to 1000 nM and “** (a Y value (shown as**) of 20%<Y≤35%)”.
On to `O=C1CCC(N2Cc3c(ccc(C(=O)N[C@H](c4ccc(F)cc4)C(F)(F)F)c3F)C2=O)C(=O)N1` (stereo partly drawn) [Example 96, 2-(2,6-dioxopiperidin-3-yl)-4-fluoro-1-oxo-N-((R)-2,2,2-trifluoro-1-(4-fluorophenyl)ethyl)isoindoline-5-carboxamide], for which the 50% degradation concentration (DC50) was < 100 nM and the Y result is on record as “* (a Y value (shown as *) of 0<Y≤20%)”.
The corresponding values for `O=C1CCC(N2Cc3c(ccc(C(=O)N[C@H](c4cccc(C(F)(F)F)c4)C(F)(F)F)c3F)C2=O)C(=O)N1` (stereo partly drawn) [Example 97, 2-(2,6-dioxopiperidin-3-yl)-4-fluoro-1-oxo-N-((R)-2,2,2-trifluoro-1-(3-(trifluoromethyl)phenyl)ethyl)isoindoline-5-carboxamide] are 100 to 500 nM and “** (a Y value (shown as**) of 20%<Y≤35%)”.
